# From patent US9981959B2, “Thiazolyl and oxazolyl urea, thiourea, guanidine and cyanoguanidine compounds as TrkA kinase inhibitors” (Array BioPharma Inc., priority 2012, dated 2018)
# Columns and labels:
# Assay in all cases: KinaseProfiler off-target kinase profiling
# Format in all cases: biochemical
# Details in all cases: 10 μM, ATP near Km
# [1] = target: T1, NEK7 (Homo sapiens, UniProt Q8TDX7)
# T1 construct: purchased Millipore, Inc. (KinaseProfiler service)
# Experimental: (§1) A representative compound of the invention (Example 2) was tested for off-target kinase activity at a concentration of 10 μM by Millipore, Inc. in their KinaseProfiler™ service against all the kinases available in their full kinase panel. The compound was run in duplicate at a concentration of ATP near the Km for each individual kinase according to Millipore's specifications. The results are shown in Table B. Data are reported as percent of control (POC) and are the average of the two replicates.
# [2] = target: T2, Hck (Homo sapiens, UniProt P08631)
# T2 construct: purchased Millipore, Inc. (KinaseProfiler service)
# Experimental: as §1
# [3] = target: T3, CDK2/cyclinA (Homo sapiens, UniProt P24941)
# T3 construct: purchased Millipore (KinaseProfiler service)
# Experimental: as §1
# [4] = target: T4, TAK1 (Homo sapiens, UniProt O43318)
# T4 construct: purchased Millipore, Inc. (KinaseProfiler service)
# T4 sequence (O43318 1-303 limits assumed): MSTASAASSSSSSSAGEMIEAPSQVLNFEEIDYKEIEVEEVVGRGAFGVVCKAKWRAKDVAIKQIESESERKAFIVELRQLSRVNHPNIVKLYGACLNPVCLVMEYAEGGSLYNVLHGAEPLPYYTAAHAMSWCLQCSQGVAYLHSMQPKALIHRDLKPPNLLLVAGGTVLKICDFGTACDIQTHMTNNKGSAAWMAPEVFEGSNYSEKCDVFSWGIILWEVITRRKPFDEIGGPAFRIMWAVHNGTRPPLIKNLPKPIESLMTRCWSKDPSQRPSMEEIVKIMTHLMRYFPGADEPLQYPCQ
# Experimental: as §1
# [5] = target: T5, IKKbeta (Homo sapiens, UniProt O14920)
# T5 construct: purchased Millipore, Inc. (KinaseProfiler service)
# T5 sequence (O14920 whole entry): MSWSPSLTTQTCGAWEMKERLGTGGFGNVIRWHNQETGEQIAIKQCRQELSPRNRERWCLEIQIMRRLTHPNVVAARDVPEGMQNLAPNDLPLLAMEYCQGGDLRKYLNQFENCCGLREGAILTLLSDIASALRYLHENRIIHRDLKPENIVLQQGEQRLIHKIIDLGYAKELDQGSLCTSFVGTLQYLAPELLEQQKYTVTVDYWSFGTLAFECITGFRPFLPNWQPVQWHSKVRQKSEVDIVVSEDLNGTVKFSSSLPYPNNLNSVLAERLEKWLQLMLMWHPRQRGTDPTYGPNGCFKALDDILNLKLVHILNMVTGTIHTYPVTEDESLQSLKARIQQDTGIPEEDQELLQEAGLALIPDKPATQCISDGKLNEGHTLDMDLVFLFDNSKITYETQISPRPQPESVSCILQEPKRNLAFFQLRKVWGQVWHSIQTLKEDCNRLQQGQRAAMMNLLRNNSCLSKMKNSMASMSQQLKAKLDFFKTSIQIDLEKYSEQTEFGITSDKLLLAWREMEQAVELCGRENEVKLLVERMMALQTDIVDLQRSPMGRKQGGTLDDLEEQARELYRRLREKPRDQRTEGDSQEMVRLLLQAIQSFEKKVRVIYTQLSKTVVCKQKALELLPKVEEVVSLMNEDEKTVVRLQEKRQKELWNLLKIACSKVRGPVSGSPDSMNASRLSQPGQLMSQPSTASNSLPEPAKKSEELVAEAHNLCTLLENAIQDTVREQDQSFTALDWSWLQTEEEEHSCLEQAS
# Experimental: as §1
# [6] = target: T6, BLK_m (Mus musculus, UniProt P16277)
# T6 construct: purchased Millipore (KinaseProfiler service)
# Experimental: as §1
# [7] = target: T7, Rsk3 (Homo sapiens, UniProt Q15349)
# T7 construct: purchased Millipore, Inc. (KinaseProfiler service)
# Experimental: as §1
# [8] = target: T8, ERK1 (Homo sapiens, UniProt P27361)
# T8 construct: purchased Millipore, Inc. (KinaseProfiler service)
# T8 sequence (P27361 whole entry): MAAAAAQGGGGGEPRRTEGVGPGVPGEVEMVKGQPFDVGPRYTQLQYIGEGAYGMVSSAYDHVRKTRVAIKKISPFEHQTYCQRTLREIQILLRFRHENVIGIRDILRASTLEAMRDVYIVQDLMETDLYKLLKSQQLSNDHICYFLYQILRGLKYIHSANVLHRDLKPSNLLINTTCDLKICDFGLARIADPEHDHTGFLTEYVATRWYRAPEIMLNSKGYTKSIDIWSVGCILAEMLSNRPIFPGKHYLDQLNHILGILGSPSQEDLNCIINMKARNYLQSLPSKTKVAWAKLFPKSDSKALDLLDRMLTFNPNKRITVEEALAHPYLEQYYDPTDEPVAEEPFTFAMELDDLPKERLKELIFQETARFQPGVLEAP
# Experimental: as §1
# [9] = target: T9, TNK2 (Homo sapiens, UniProt Q07912)
# T9 construct: purchased Millipore, Inc. (KinaseProfiler service)
# Experimental: as §1
# [10] = target: T10, AMPK(A1/B1/G1) (Homo sapiens, UniProt Q13131)
# T10 construct: purchased Millipore (KinaseProfiler service)
# Experimental: as §1
# [11] = target: T11, PKCgamma (Homo sapiens, UniProt P05129)
# T11 construct: purchased Millipore, Inc. (KinaseProfiler service)
# Experimental: as §1
# [12] = target: T12, STK33 (Homo sapiens, UniProt Q9BYT3)
# T12 construct: purchased Millipore, Inc. (KinaseProfiler service)
# Experimental: as §1
# [13] = target: T13, IRR (Homo sapiens, UniProt P14616)
# T13 construct: purchased Millipore, Inc. (KinaseProfiler service)
# Experimental: as §1
# [14] = target: T14, PRKG1alpha (Homo sapiens, UniProt Q13976)
# T14 construct: purchased Millipore, Inc. (KinaseProfiler service)
# Experimental: as §1
# [15] = target: T15, MAPKAP-K5 (Homo sapiens, UniProt Q8IW41)
# T15 construct: purchased Millipore, Inc. (KinaseProfiler service)
# T15 sequence (Q8IW41 whole entry): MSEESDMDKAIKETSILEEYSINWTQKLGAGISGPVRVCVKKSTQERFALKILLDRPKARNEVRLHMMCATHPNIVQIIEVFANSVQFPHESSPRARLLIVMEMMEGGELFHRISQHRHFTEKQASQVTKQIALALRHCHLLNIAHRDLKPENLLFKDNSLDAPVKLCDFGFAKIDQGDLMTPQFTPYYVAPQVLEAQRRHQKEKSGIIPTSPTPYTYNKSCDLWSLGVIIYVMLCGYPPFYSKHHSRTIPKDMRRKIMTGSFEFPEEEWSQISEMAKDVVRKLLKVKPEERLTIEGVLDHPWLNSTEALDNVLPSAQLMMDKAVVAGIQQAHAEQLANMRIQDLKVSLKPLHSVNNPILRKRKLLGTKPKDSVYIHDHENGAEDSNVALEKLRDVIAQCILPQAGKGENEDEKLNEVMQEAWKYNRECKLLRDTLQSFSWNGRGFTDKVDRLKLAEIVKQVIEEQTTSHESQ
# Experimental: as §1
# [16] = target: T16, IGF-1R Activated (Homo sapiens, UniProt P08069)
# T16 construct: purchased Millipore, Inc. (KinaseProfiler service)
# Experimental: as §1
# [17] = target: T17, NLK (Homo sapiens, UniProt Q9UBE8)
# T17 construct: purchased Millipore, Inc. (KinaseProfiler service)
# Experimental: as §1
# [18] = target: T18, JNK1alpha1 (Homo sapiens, UniProt P45983)
# T18 construct: purchased Millipore, Inc. (KinaseProfiler service)
# Experimental: as §1
# [19] = target: T19, Flt3 (Homo sapiens, UniProt P36888)
# T19 construct: purchased Millipore, Inc. (KinaseProfiler service)
# Experimental: as §1
# [20] = target: T20, Ros (Homo sapiens, UniProt P08922)
# T20 construct: purchased Millipore, Inc. (KinaseProfiler service)
# Experimental: as §1
# [21] = target: T21, TAO3 (Homo sapiens, UniProt Q9H2K8)
# T21 construct: purchased Millipore, Inc. (KinaseProfiler service)
# Experimental: as §1
# [22] = target: T22, CAMK2b (Homo sapiens, UniProt Q13554)
# T22 construct: purchased Millipore (KinaseProfiler service)
# Experimental: as §1
# [23] = target: T23, EphA2 (Homo sapiens, UniProt P29317)
# T23 construct: purchased Millipore, Inc. (KinaseProfiler service)
# Experimental: as §1
# [24] = target: T24, PRK2 (Homo sapiens, UniProt Q16513)
# T24 construct: purchased Millipore, Inc. (KinaseProfiler service)
# Experimental: as §1
# [25] = target: T25, IR (Homo sapiens, UniProt P06213)
# T25 construct: purchased Millipore, Inc. (KinaseProfiler service)
# Experimental: as §1
# [26] = target: T26, Pim-3 (Homo sapiens, UniProt Q86V86)
# T26 construct: purchased Millipore, Inc. (KinaseProfiler service)
# Experimental: as §1
# [27] = target: T27, DAPK2 (Homo sapiens, UniProt Q9UIK4)
# T27 construct: purchased Millipore, Inc. (KinaseProfiler service)
# Experimental: as §1
# [28] = target: T28, HIPK1 (Homo sapiens, UniProt Q86Z02)
# T28 construct: purchased Millipore, Inc. (KinaseProfiler service)
# T28 sequence (Q86Z02 whole entry): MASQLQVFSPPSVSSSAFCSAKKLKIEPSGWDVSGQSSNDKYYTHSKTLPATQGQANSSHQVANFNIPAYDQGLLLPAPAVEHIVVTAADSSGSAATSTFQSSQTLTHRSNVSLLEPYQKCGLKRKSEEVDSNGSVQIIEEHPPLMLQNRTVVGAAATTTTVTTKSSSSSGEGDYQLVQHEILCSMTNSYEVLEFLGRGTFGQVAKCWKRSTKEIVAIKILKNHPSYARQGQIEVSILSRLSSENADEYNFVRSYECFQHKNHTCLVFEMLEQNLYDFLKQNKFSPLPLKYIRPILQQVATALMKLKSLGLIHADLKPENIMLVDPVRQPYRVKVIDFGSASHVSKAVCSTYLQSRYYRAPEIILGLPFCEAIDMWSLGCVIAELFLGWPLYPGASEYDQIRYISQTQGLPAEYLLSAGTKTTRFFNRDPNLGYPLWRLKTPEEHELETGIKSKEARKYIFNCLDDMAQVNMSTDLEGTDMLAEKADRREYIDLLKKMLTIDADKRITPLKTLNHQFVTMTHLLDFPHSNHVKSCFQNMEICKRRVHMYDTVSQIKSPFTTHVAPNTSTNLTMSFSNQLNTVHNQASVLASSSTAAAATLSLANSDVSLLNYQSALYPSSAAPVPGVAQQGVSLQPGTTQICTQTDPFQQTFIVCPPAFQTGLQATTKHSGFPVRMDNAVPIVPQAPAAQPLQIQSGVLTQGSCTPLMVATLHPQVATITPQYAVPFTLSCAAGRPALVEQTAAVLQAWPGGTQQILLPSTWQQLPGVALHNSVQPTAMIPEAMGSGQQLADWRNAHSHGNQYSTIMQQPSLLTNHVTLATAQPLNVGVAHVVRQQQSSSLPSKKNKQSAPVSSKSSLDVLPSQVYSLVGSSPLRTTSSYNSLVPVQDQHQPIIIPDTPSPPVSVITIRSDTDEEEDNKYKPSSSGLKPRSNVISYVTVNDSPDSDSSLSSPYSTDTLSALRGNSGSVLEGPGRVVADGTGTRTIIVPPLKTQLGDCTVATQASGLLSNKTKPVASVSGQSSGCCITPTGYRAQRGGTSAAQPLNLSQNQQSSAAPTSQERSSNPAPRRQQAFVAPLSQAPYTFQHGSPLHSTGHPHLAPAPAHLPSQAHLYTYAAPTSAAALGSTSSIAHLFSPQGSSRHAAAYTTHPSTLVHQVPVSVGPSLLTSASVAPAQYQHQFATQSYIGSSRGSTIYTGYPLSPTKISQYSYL
# Experimental: as §1
# [29] = target: T29, PKCbetaI (Homo sapiens, UniProt P05771)
# T29 construct: purchased Millipore, Inc. (KinaseProfiler service)
# Experimental: as §1
# [30] = target: T30, PAK2 (Homo sapiens, UniProt Q13177)
# T30 construct: purchased Millipore, Inc. (KinaseProfiler service)
# Experimental: as §1
# [31] = target: T31, GSK3beta (Homo sapiens, UniProt P49841)
# T31 construct: purchased Millipore, Inc. (KinaseProfiler service)
# Experimental: as §1
# [32] = target: T32, KIT (Homo sapiens, UniProt P10721)
# T32 construct: purchased Millipore, Inc. (KinaseProfiler service)
# Experimental: as §1
# [33] = target: T33, EphB3 (Homo sapiens, UniProt P54753)
# T33 construct: purchased Millipore, Inc. (KinaseProfiler service)
# Experimental: as §1
# [34] = target: T34, MAP3K5 (Homo sapiens, UniProt Q99683)
# T34 construct: purchased Millipore, Inc. (KinaseProfiler service)
# Experimental: as §1
# [35] = target: T35, p38delta (Homo sapiens, UniProt O15264)
# T35 construct: purchased Millipore, Inc. (KinaseProfiler service)
# T35 sequence (O15264 whole entry): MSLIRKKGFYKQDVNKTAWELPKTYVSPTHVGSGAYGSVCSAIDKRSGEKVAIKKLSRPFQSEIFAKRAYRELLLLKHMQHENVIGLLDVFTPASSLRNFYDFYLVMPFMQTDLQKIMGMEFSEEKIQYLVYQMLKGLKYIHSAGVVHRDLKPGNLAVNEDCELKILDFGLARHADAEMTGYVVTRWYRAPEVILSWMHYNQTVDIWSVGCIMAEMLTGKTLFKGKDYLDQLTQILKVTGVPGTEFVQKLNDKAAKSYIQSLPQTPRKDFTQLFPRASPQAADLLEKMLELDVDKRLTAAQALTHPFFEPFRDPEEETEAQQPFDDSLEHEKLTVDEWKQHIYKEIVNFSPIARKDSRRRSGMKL
# Experimental: as §1
# [36] = target: T36, FGFR3 (Homo sapiens, UniProt P22607)
# T36 construct: purchased Millipore, Inc. (KinaseProfiler service)
# Experimental: as §1
# [37] = target: T37, MST1 (Homo sapiens, UniProt Q13043)
# T37 construct: purchased Millipore, Inc. (KinaseProfiler service)
# Experimental: as §1
# [38] = target: T38, DAPK3 (Homo sapiens, UniProt O43293)
# T38 construct: purchased Millipore, Inc. (KinaseProfiler service)
# Experimental: as §1
# [39] = target: T39, MARK1 (Homo sapiens, UniProt Q9P0L2)
# T39 construct: purchased Millipore, Inc. (KinaseProfiler service)
# T39 sequence (Q9P0L2 whole entry): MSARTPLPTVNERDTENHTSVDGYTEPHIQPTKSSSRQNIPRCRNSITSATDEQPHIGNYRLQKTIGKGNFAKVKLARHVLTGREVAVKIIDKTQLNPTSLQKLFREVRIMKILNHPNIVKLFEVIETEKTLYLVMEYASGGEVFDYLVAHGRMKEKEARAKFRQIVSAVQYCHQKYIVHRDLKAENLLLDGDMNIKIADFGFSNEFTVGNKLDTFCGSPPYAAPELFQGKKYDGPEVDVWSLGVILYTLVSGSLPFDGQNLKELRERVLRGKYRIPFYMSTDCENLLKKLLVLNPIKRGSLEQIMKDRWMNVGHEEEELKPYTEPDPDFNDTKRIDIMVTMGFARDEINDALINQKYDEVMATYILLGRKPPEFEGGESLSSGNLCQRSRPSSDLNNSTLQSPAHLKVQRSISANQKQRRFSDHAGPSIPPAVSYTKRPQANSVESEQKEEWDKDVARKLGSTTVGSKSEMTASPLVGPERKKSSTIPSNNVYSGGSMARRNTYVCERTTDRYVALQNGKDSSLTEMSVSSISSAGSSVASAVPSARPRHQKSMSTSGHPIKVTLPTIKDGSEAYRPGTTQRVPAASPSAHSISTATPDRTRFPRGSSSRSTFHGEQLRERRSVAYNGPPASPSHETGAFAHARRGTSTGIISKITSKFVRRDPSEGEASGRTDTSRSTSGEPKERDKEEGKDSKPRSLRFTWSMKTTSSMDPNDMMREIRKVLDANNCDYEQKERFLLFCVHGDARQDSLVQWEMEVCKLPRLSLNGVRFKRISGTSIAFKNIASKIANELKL
# Experimental: as §1
# [40] = target: T40, NEK3 (Homo sapiens, UniProt P51956)
# T40 construct: purchased Millipore, Inc. (KinaseProfiler service)
# Experimental: as §1
# [41] = target: T41, p38alpha (Homo sapiens, UniProt Q16539)
# T41 construct: purchased Millipore, Inc. (KinaseProfiler service)
# Experimental: as §1
smiles,measurement,setting,value
"Cc1c(-c2cnn(C)c2)nn(-c2ccccc2)c1NC(=O)Nc1sc(C(F)(F)F)nc1-c1ccccc1 [Example 2, 1-(1′,4-dimethyl-1-phenyl-1H,1′H-[3,4′-bipyrazol]-5-yl)-3-(4-phenyl-2-(trifluoromethyl)thiazol-5-yl)urea]",Avg POC,[1],119.5 POC
same,Avg POC,[2],134.5 POC
same,Avg POC,[3],122 POC
same,Avg POC,[4],95.5 POC
same,Avg POC,[5],112 POC
same,Avg POC,[6],112 POC
same,Avg POC,[7],99 POC
same,Avg POC,[8],96.5 POC
same,Avg POC,[9],142.5 POC
same,Avg POC,[10],134.5 POC
same,Avg POC,[11],90 POC
same,Avg POC,[12],120.5 POC
same,Avg POC,[13],109 POC
same,Avg POC,[14],118 POC
same,Avg POC,[15],95.5 POC
same,Avg POC,[16],97.5 POC
same,Avg POC,[17],125.5 POC
same,Avg POC,[18],113 POC
same,Avg POC,[19],98 POC
same,Avg POC,[20],96.5 POC
same,Avg POC,[21],94 POC
same,Avg POC,[22],102 POC
same,Avg POC,[23],127 POC
same,Avg POC,[24],104.5 POC
same,Avg POC,[25],99 POC
same,Avg POC,[26],107.5 POC
same,Avg POC,[27],103.5 POC
same,Avg POC,[28],108 POC
same,Avg POC,[29],102 POC
same,Avg POC,[30],98.5 POC
same,Avg POC,[31],127.5 POC
same,Avg POC,[32],102.5 POC
same,Avg POC,[33],72.5 POC
same,Avg POC,[34],107.5 POC
same,Avg POC,[35],104.5 POC
same,Avg POC,[36],117 POC
same,Avg POC,[37],100.5 POC
same,Avg POC,[38],120 POC
same,Avg POC,[39],107 POC
same,Avg POC,[40],108.5 POC
same,Avg POC,[41],91 POC
